Laboratory results taken from patent US12440496B2, “Natriuretic peptide receptor a agonists useful for the treatment of cardiometabolic diseases, kidney disease and diabetes” (Merck Sharp & Dohme LLC, priority 2019, dated 2025).

Biological target: T1, hNPRA (Homo sapiens, UniProt P16066)
T1 construct: expressed in transfected cells
T1 sequence (P16066 33-1061): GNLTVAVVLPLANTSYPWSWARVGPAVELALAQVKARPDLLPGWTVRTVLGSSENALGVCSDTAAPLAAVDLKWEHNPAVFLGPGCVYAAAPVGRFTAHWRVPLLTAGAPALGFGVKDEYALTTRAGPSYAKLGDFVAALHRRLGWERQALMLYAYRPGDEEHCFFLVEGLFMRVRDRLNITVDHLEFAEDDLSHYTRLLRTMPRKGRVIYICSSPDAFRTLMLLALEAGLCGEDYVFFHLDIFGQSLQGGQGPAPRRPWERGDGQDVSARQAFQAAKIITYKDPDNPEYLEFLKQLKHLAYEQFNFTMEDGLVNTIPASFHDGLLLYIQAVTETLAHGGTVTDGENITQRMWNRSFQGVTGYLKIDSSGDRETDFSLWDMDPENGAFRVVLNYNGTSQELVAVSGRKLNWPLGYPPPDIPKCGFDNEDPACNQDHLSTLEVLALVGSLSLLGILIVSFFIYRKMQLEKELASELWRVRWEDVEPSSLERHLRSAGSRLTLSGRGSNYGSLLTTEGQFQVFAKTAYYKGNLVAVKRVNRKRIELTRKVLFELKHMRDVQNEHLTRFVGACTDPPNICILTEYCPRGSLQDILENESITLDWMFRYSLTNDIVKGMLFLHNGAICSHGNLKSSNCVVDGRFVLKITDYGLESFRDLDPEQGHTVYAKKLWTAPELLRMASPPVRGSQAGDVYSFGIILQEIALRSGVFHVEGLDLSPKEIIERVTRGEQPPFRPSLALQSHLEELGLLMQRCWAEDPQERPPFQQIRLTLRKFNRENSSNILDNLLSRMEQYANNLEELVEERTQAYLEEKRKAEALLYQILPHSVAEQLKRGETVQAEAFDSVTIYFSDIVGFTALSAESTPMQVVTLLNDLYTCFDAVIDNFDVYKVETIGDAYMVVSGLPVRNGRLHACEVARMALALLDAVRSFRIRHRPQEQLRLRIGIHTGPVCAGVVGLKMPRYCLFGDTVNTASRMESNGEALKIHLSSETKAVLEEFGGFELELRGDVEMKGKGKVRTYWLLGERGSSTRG
Assay: NPRA Functional Cell Assay (cGMP HTRF, NPRA HEK JumpIn stable cells)
Format: cell-based
Settings: cGMP production, 1 hour at 37° C., 10-point dose response
In short: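 cGMP HTRF read-out after 1 hour compound treatment at 37° C. of human NPRA-expressing HEK JumpIn cells, 1500 cells/well, in buffer with phosphodiesterase inhibitors IBMX and RO20 (100 uM each). Signal converted to [cGMP] by calibration curve; EC50s fitted by 4-parameter logistic; 50 nM h-ANP as positive response.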

Row | EC50 [nM] | SMILES
1 | 671 | COC(=O)C1CCN(CC[C@@H](NC(=O)c2nc3cc4c(nc3s2)CC[C@H](C(C)(C)C)C4)c2cccc(C(=O)NC3CN(C)C3)c2)CC1 (racemic) [Example 114, methyl 1-[rac-(3R)-3-[3-[(1-methylazetidin-1-ium-3-yl)carbamoyl]phenyl]-3-[[rac-(7S)-7-tert-butyl-5,6,7,8-tetrahydrothiazolo[5,4-b]quinoline-2-carbonyl]amino]propyl] piperidine-4-carboxylate; 2,2,2-trifluoroacetate]
2 | 915 | CC(C)(C)[C@H]1CCc2nc3sc(C(=O)N[C@H](CCN4CCC(c5nn[nH]n5)C4)c4ccc(-c5ccc(=O)[nH]c5)cc4)cc3cc2C1 (mixture of isomers) [Example 58, rac-(6S)-6-tert-butyl-N-[rac-(1R)-1-[4-(6-oxo-1H-pyridin-3-yl)phenyl]-3-[3-(2H-tetrazol-5-yl)pyrrolidin-1-ium-1-yl]propyl]-5,6,7,8-tetrahydrothieno[2,3-b]quinoline-2-carboxamide;formate]
3 | 560 | O=C(N[C@H](CCN1CCC(O)CC1)c1ccc(-c2cnc(O)c(F)c2)cc1)c1nc2cc3c(nc2s1)CC[C@H](C1(C(F)(F)F)CC1)C3 [Example 235, (S)-N-((R)-1-(4-(5-fluoro-6-oxo-1,6-dihydropyridin-3-yl)phenyl)-3-(4-hydroxypiperidin-1-yl)propyl)-7-(1-(trifluoromethyl)cyclopropyl)-5,6,7,8-tetrahydrothiazolo[5,4-b]quinoline-2-carboxamide]
4 | 198 | CC(C)(C)[C@H]1CCc2nc3sc(C(=O)N[C@H](CCN4CCC(O)CC4)c4ccc(-c5ccnnc5)cc4)nc3cc2C1 (racemic) [Example 162, rac-(7S)-7-tert-butyl-N-[rac-(1R)-3-(4-hydroxy-1-piperidyl)-1-(4-pyridazin-4-ylphenyl)propyl]-5,6,7,8-tetrahydrothiazolo[5,4-b]quinoline-2-carboxamide]
5 | 1180 | CC(C)(C)[C@H]1CCc2nc3sc(C(=O)N[C@H](CCN4CCC(O)CC4)c4ccc(-c5ccc(OCCF)nc5)cc4)nc3cc2C1 (racemic) [Example 128, rac-(7S)-7-tert-butyl-N-[rac-(1R)-1-[4-[6-(2-fluoroethoxy)-3-pyridyl]phenyl]-3-(4-hydroxypiperidin-1-ium-1-yl)propyl]-5,6,7,8-tetrahydrothiazolo[5,4-b] quinoline-2-carboxamide; 2,2,2-trifluoroacetate]
6 | > 2000 | CC(C)(C)[C@H]1CCc2nc3sc(C(=O)N[C@H](CCN)c4ccccc4)cc3cc2C1 [Example 229, (S)-N-((R)-3-amino-1-phenylpropyl)-6-(tert-butyl)-5,6,7,8-tetrahydrothieno[2,3-b]quinoline-2-carboxamide]
7 | 863 | Cn1cnnc1-c1ccc([C@@H](CCN2CCC(O)CC2)NC(=O)c2nc3cc4c(nc3s2)CC[C@H](C(C)(C)C)C4)cc1 (racemic) [Example 170, rac-(7S)-7-tert-butyl-N-[rac-(1R)-3-(4-hydroxy-1-piperidyl)-1-[4-(4-methyl-1,2,4-triazol-3-yl)phenyl]propyl]-5,6,7,8-tetrahydrothiazolo[5,4-b]quinoline-2-carboxamide]
8 | 673 | CC1(O)CCN(CC[C@@H](NC(=O)c2cc3cc4c(nc3s2)CC[C@H](C(C)(C)C)C4)c2ccc(-c3ccc(=O)[nH]c3)cc2)CC1 (racemic) [Example 45, rac-(6S)-6-tert-butyl-N-[rac-(1R)-3-(4-hydroxy-4-methyl-piperidin-1-ium-1-yl)-1-[4-(6-oxo-1H-pyridin-3-yl)phenyl]propyl]-5,6,7,8-tetrahydrothieno[2,3-b]quinoline-2-carboxamide;formate]
9 | 582 | CC(C)(C)[C@H]1CCc2nc3sc(C(=O)N[C@H](CCN4CCC[C@H]4CO)c4ccc(-c5ccc(=O)[nH]c5)cc4)cc3cc2C1 (racemic) [Example 38, rac-(6S)-6-tert-butyl-N-[rac-(1R)-1-[4-(6-oxo-1H-pyridin-3-yl)phenyl]-3-[rac-(2S)-2-(hydroxymethyl)pyrrolidin-1-ium-1-yl]propyl]-5,6,7,8-tetrahydrothieno[2,3-b]quinoline-2-carboxamide;formate]
